Measured values as given in ChEMBL document CHEMBL1201862, “PubChem BioAssay data set” (2004).
Where a name gives a salt, the structure may show the parent alone. Calls of active or inactive are those of the source.

Experiments:
[1] = system: SN12K1; experiment: cells; format: functional; settings: Homo sapiens
[2] = system: P388/ADR; experiment: cells; format: functional; settings: Mus musculus
[3] = system: P388; experiment: cells; format: functional; settings: Mus musculus
[4] = intracellular Trypanosoma cruzi inhibitors in host cells – cell-based, plate reader, cherry-pick samples, set 3, dose response (AID 651818); format: functional;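 note: compounds incubated with infected cells for about four days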
[5] = P. falciparum Dd2 growth inhibitors, dose response, SYBR Green, cherry-picked samples (AID 1159567); format: functional, cell-based
[6] = biological target: Cytochrome P450 3A4 (Homo sapiens, UniProt P08684); settings: Potency;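 note: confirmatory qHTS run detecting inhibitors and substrates of CYP3A4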
Chain of Cytochrome P450 3A4 (P08684 whole entry): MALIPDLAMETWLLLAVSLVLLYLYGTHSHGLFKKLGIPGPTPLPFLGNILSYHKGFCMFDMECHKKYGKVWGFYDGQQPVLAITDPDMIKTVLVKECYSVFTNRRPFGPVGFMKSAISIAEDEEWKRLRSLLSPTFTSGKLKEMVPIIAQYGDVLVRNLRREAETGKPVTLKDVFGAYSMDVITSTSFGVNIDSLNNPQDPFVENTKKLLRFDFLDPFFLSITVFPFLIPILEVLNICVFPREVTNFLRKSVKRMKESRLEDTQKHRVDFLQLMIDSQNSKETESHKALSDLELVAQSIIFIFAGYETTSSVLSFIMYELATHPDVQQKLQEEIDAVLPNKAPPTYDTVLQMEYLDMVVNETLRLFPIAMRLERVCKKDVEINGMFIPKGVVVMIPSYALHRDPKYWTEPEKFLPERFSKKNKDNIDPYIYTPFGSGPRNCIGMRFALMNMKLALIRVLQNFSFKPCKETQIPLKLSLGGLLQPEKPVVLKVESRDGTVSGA

Row | Structure (SMILES) | GI50 [1] | GI50 [2] | GI50 [3] | AC50 [4] | also measured
1 | Cc1ccc(S(=O)(=O)Oc2cc(-c3ccccc3)nc3ccccc23)cc1 | 1.61 µM (inactive) | 1.91 µM (inactive) | 1.15 µM (inactive) |  | 
2 | O=S1(=O)C(=C(c2ccccc2)c2ccccc2)S(=O)(=O)c2ccccc21 | 28.2 µM (inactive) | > 100 µM (inactive) | > 31.6 µM (inactive) |  | 
3 | CCCCCCCCCCCC[S+](C)C | 5.33 µM (inactive) | 27.8 µM (inactive) | 0.236 µM (active) |  | 
4 | COc1ccc2c(c1)CCc1c(CO)c(COC(=O)NC(C)C)n(C)c1-2 | 3.32 µM (inactive) | 2.2 µM (inactive) | 1.17 µM (inactive) |  | 
5 | C[C@@H]1CCCCO[C@H](CN(C)Cc2ccc(Cl)c(Cl)c2)[C@@H](C)CN([C@H](C)CO)C(=O)c2cc(NC(=O)CCCCCC(=O)Nc3ccccc3N)ccc2O1 |  |  |  | 2.65 µM (active) | 
6 | C[C@H]1CN([C@@H](C)CO)C(=O)Cc2cc(N(C)C)ccc2O[C@@H]1CN(C)Cc1ccc(Cl)c(Cl)c1 |  |  |  | 2.09 µM (active) | 
7 | Cc1ccc(S(=O)(=O)Nc2ccc3c(c2)C(=O)N([C@@H](C)CO)C[C@H](C)[C@@H](CN(C)Cc2ccc(-c4ccccc4)cc2)O3)cc1 |  |  |  | 3.88 µM (active) | 
8 | C[C@@H]1CN([C@@H](C)CO)C(=O)c2cccc(NC(=O)Nc3ccc4c(c3)OCO4)c2O[C@H]1CN(C)Cc1ccc(Cl)c(Cl)c1 |  |  |  | 2.22 µM (active) | 
9 | C[C@@H]1CCCCO[C@@H](CN(C)CC2CCCCC2)[C@@H](C)CN([C@H](C)CO)C(=O)c2cc(NC(=O)Nc3ccc(F)cc3)ccc2O1 |  |  |  | 1.64 µM (active) | 
10 | CC(C)NC(=O)N(C)C[C@H]1Oc2c(NC(=O)c3cnccn3)cccc2C(=O)N([C@H](C)CO)C[C@H]1C |  |  |  | 3.41 µM (active) | 
11 | CC(C)C#Cc1ccc([C@@H]2[C@H](CO)N3CCCCN(C(=O)c4ccc5c(c4)OCO5)C[C@@H]23)cc1 |  |  |  |  | AC50 [5]: 5.18 µM (active)
12 | C[C@@H]1CN([C@H](C)CO)C(=O)c2cccc(NS(=O)(=O)c3cccs3)c2O[C@H]1CN(C)Cc1ccc(C(F)(F)F)cc1 |  |  |  |  | AC50 [5]: 7.6 µM (active)
13 | O=c1[nH]c(=O)n([C@H]2CCCO2)cc1F | 369 µM (inactive) | 37.7 µM (inactive) | 24.3 µM (inactive) |  | 
14 | Cc1c2ccccc2c(C)c2c1ccc1ccccc12 |  |  |  |  | AC50 [6]: 12.6 µM (inconclusive)
15 | COc1ccccc1-c1cccc(-c2nc(C(=O)Nc3nccs3)cc3c2[C@H](CCO)N(C(=O)CC2CC2)C3)c1 |  |  |  |  | AC50 [5]: 4.27 µM (active)
16 | CC(C)(C)[S@+]([O-])N1Cc2cc(C(=O)NCCN3CCCC3)nc(-c3cccc(-c4ccc(C#N)cc4)c3)c2[C@@H]1CCO |  |  |  |  | AC50 [5]: 6.6 µM (active)
17 | CO[C@@H]1CN(C)C(=O)c2ccc(NC(=O)NC3CCCCC3)cc2OC[C@@H](C)N(CCc2ccccc2)C[C@H]1C |  |  |  |  | AC50 [5]: 5.41 µM (active)
18 | O=C(/C=C/c1ccccc1)c1ccc(O)cc1 [4'-HYDROXYCHALCONE] |  |  |  |  | AC50 [6]: 39.8 µM (inconclusive)
19 | O=C1C=CC(=O)c2c(O)cccc21 [JUGLONE] |  |  |  |  | AC50 [6]: 39.8 µM (inconclusive)
20 | CNNCc1ccc(C(=O)NC(C)C)cc1 [PROCARBAZINE HYDROCHLORIDE] | > 456 µM (inactive) | > 485 µM (inactive) | > 500 µM (inactive) |  | 
